{
  "source": "ChEMBL document CHEMBL5260850",
  "about": "“The exploration of aza-quinolines as hematopoietic prostaglandin D synthase (H-PGDS) inhibitors with low brain exposure” (Bioorg Med Chem, 2020)",
  "key": {"[1]": {"experiment": "Genotoxicity in Salmonella typhimurium in presence of metabolic activation by Ames test", "assay_type": "toxicity", "conditions": "salmonella enterica subsp. enterica serovar typhimurium"}, "[2]": {"experiment": "Toxicity in Wistar Han rat assessed as morphological changes in heart at 30 mg/kg/day, po administered QD for 7 days by microscopic analysis", "assay_type": "organism-based", "conditions": "in vivo, 168 h, time 7 day"}, "[3]": {"experiment": "Solubility of the compound in FaSSIF at pH 6.5 measured after 4 hrs by HPLC-UV analysis", "assay_type": "ADME"}},
  "data": [
    {"smiles": "CC(C)(O)[C@H]1CC[C@H](NC(=O)c2cnc3nc(C4CC4)ccc3c2)CC1", "values": [
      {"measurement": "Activity", "setting": "[1]", "value": "Non-Toxic"},
      {"measurement": "Activity", "setting": "[2]", "value": "Non-Toxic"},
      {"measurement": "solubility at 4 h", "setting": "[3]", "value": 140, "unit": "µg/mL"}
    ]}
  ]
}
